Measured values taken from US9113629B2, “4-amino-6-(4-substituted-phenyl)-picolinates and 6-amino-2-(4-substituted-phenyl)-pyrimidine-4-carboxylates and their use as herbicides” (DOW AGROSCIENCES LLC, priority 2013, dated 2015).
Where two headings read alike, the source gives them in different places.

Tests used:
[1] = system: Key Grass and Sedge Weeds as well as Grass Crops; test: Post-emergent Test II herbicidal activity (Table 6); format: in vivo; conditions: post-emergence, 336 h; for pest or weed control at 70 g/ha: 70 g ai/ha; for pest or weed control at 140 g/ha: 140 g ai/ha
Procedure, shortened: (§1)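 Scoring: visual, 0–100% injury at 14 d versus untreated. Treatment: overhead track spray, 187 L/ha, onto plants at the first–second true leaf stage. Growth: greenhouse, ~15 h light, 23–29 °C day, 22–28 °C night.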

[2] = system: Key Broadleaf Weed and Crop Species; test: Post-emergent Test II herbicidal activity (Table 5); format: in vivo; conditions: post-emergence, 336 h, 14 days after application; for pest or weed control at 70 g/ha: application rate 70 g ai/ha; for pest or weed control at 140 g/ha: application rate 140 g ai/ha
Procedure, shortened: as §1

[3] = CYPES: yellow nutsedge (Cyperus esculentus), read-out: Visual Growth Reduction (%) 14 Days After Application, CYPES
[4] = DIGSA: crabgrass (Digitaria sanguinalis), read-out: Visual Growth Reduction (%) 14 Days After Application, DIGSA
[5] = ECHCG: barnyardgrass (Echinochloa crus-galli), read-out: Visual Growth Reduction (%) 14 Days After Application, ECHCG
[6] = ORYSA: rice (Oryza sativa), crop, read-out: Visual Growth Reduction (%) 14 Days After Application, ORYSA
[7] = SETFA: giant foxtail (Setaria faberi), read-out: Visual Growth Reduction (%) 14 Days After Application, SETFA
[8] = SORVU: grain sorghum (Sorghum vulgare), read-out: Visual Growth Reduction (%) 14 Days After Application, SORVU
[9] = TRZSS (wheat, Triticum aestivum), crop, read-out: Visual Growth Reduction (%) 14 Days After Application, TRZSS
[10] = ZEAMX: maize, corn (Zea mays), crop, read-out: Visual Growth Reduction (%) 14 Days After Application, ZEAMX
[11] = ABUTH: velvetleaf (Abutilon theophrasti), read-out: Visual Growth Reduction (%) 14 Days After Application, ABUTH
[12] = AMARE: redroot pigweed (Amaranthus retroflexus), read-out: Visual Growth Reduction (%) 14 Days After Application, AMARE
[13] = BRSNN: oilseed-rape, canola (Brassica napus), read-out: Visual Growth Reduction (%) 14 Days After Application, BRSNN
[14] = CHEAL: lambsquarters (Chenopodium album), read-out: Visual Growth Reduction (%) 14 Days After Application, CHEAL
[15] = EPHHL: wild poinsettia (Euphorbia heterophylla), read-out: Visual Growth Reduction (%) 14 Days After Application, EPHHL
[16] = HELAN: sunflower (Helianthus annuus), read-out: Visual Growth Reduction (%) 14 Days After Application, HELAN
[17] = VIOTR: wild pansy (Viola tricolor), read-out: Visual Growth Reduction (%) 14 Days After Application, VIOTR

SMILES | pest or weed control at 70 g/ha [1, 3] [%] | pest or weed control at 140 g/ha [1, 3] [%] | pest or weed control at 70 g/ha [1, 4] [%] | pest or weed control at 140 g/ha [1, 4] [%] | pest or weed control at 70 g/ha [1, 5] [%] | pest or weed control at 140 g/ha [1, 5] [%] | pest or weed control at 70 g/ha [1, 6] [%] | pest or weed control at 140 g/ha [1, 6] [%] | pest or weed control at 70 g/ha [1, 7] [%] | pest or weed control at 140 g/ha [1, 7] [%] | pest or weed control at 70 g/ha [1, 8] [%] | pest or weed control at 140 g/ha [1, 8] [%] | pest or weed control at 70 g/ha [1, 9] [%] | pest or weed control at 140 g/ha [1, 9] [%] | pest or weed control at 70 g/ha [1, 10] [%] | pest or weed control at 140 g/ha [1, 10] [%] | melting point [°C] | pest or weed control at 70 g/ha [2, 11] [%] | pest or weed control at 140 g/ha [2, 11] [%] | pest or weed control at 70 g/ha [2, 12] [%] | also measured
C#Cc1ccc(-c2nc(N)c(OC)c(C(=O)OC)n2)c(F)c1F [Compound 84] | 0 to 29 | 0 to 29 | 0 to 29 | 0 to 29 | 0 to 29 | 0 to 29 | 0 to 29 | 0 to 29 | 0 to 29 | 0 to 29 | 0 to 29 | 0 to 29 | 0 to 29 | 0 to 29 | 0 to 29 | 0 to 29 | 214 to 217 | 0 to 29 | 0 to 29 | 0 to 29 | pest or weed control at 140 g/ha [2, 12]: 0 to 29%; pest or weed control at 70 g/ha [2, 13]: 0 to 29%; pest or weed control at 140 g/ha [2, 13]: 0 to 29%; pest or weed control at 70 g/ha [2, 14]: 0 to 29%; pest or weed control at 140 g/ha [2, 14]: 0 to 29%; pest or weed control at 70 g/ha [2, 15]: 0 to 29%; pest or weed control at 140 g/ha [2, 15]: 0 to 29%; pest or weed control at 140 g/ha [2, 16]: 60 to 74%; pest or weed control at 70 g/ha [2, 17]: 0 to 29%; pest or weed control at 140 g/ha [2, 17]: 0 to 29%
COc1c(N)nc(-c2ccc(I)c(F)c2F)nc1C(=O)O [Compound 89] | 45 to 59 | 95 to 100 | 45 to 59 | 60 to 74 | 85 to 94 | 85 to 94 | 0 to 29 | 60 to 74 | 85 to 94 | 85 to 94 | 85 to 94 | 95 to 100 | 0 to 29 | 45 to 59 | 45 to 59 | 95 to 100 | 119 to 121 | 85 to 94 | 95 to 100 | 85 to 94 | pest or weed control at 140 g/ha [2, 12]: 95 to 100%; pest or weed control at 70 g/ha [2, 13]: 95 to 100%; pest or weed control at 140 g/ha [2, 13]: 95 to 100%; pest or weed control at 70 g/ha [2, 14]: 95 to 100%; pest or weed control at 140 g/ha [2, 14]: 95 to 100%; pest or weed control at 70 g/ha [2, 15]: 95 to 100%; pest or weed control at 140 g/ha [2, 15]: 95 to 100%; pest or weed control at 70 g/ha [2, 16]: 95 to 100%; pest or weed control at 140 g/ha [2, 16]: 95 to 100%; pest or weed control at 70 g/ha [2, 17]: 95 to 100%; pest or weed control at 140 g/ha [2, 17]: 95 to 100%
